Measured values taken from article PMC6576746, “Rational discovery of dual-indication multi-target PDE/Kinase inhibitor for precision anti-cancer therapy using structural systems pharmacology” (PLoS Computational Biology, 2019).

How the values were obtained:
Assay in all cases: KinomeScan competition binding assay
GAK = target: T1, GAK (Homo sapiens, UniProt O14976); settings: 10 μM levosimendan
T1 construct: DiscoverX KinomeScan panel kinase

PIP5K1A = PIP5K1A (Homo sapiens, UniProt Q99755); set-up: DiscoverX KinomeScan panel kinase; settings: 10 μM levosimendan
MYLK4 = target: T2, MYLK4 (Homo sapiens, UniProt Q86YV6); set-up: DiscoverX KinomeScan panel kinase; settings: 100 μM levosimendan
T2 sequence (Q86YV6 1-388): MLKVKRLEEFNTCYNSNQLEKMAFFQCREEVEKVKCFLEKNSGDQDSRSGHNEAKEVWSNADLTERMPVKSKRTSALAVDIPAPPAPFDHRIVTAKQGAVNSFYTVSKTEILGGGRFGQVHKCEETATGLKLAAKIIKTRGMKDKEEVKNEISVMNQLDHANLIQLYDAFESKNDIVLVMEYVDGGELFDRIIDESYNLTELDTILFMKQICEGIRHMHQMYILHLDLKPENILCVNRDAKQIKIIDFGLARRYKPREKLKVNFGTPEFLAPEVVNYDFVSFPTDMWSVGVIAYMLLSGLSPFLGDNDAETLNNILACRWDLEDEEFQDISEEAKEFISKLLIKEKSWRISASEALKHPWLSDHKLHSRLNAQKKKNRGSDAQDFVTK

RIOK3 = target: T3, RIOK3 (Homo sapiens, UniProt O14730); set-up: DiscoverX KinomeScan panel kinase; settings: 10 μM and 100 μM levosimendan
T3 sequence (O14730 1-519): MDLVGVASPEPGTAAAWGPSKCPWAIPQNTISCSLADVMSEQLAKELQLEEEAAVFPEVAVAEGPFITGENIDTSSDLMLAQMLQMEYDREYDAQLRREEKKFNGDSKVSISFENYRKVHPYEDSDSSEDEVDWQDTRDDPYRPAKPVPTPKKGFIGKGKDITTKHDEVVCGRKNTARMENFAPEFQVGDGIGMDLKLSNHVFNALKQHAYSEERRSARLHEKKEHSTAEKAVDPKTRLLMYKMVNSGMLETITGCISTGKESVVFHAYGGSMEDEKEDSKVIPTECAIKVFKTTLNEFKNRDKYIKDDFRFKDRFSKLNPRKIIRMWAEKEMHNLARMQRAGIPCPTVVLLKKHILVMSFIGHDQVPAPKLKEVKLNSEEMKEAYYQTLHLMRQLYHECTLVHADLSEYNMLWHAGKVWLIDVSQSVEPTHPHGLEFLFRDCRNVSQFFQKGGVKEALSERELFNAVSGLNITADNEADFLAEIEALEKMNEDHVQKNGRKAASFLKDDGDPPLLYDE

T1 sequence (O14976 2-1311): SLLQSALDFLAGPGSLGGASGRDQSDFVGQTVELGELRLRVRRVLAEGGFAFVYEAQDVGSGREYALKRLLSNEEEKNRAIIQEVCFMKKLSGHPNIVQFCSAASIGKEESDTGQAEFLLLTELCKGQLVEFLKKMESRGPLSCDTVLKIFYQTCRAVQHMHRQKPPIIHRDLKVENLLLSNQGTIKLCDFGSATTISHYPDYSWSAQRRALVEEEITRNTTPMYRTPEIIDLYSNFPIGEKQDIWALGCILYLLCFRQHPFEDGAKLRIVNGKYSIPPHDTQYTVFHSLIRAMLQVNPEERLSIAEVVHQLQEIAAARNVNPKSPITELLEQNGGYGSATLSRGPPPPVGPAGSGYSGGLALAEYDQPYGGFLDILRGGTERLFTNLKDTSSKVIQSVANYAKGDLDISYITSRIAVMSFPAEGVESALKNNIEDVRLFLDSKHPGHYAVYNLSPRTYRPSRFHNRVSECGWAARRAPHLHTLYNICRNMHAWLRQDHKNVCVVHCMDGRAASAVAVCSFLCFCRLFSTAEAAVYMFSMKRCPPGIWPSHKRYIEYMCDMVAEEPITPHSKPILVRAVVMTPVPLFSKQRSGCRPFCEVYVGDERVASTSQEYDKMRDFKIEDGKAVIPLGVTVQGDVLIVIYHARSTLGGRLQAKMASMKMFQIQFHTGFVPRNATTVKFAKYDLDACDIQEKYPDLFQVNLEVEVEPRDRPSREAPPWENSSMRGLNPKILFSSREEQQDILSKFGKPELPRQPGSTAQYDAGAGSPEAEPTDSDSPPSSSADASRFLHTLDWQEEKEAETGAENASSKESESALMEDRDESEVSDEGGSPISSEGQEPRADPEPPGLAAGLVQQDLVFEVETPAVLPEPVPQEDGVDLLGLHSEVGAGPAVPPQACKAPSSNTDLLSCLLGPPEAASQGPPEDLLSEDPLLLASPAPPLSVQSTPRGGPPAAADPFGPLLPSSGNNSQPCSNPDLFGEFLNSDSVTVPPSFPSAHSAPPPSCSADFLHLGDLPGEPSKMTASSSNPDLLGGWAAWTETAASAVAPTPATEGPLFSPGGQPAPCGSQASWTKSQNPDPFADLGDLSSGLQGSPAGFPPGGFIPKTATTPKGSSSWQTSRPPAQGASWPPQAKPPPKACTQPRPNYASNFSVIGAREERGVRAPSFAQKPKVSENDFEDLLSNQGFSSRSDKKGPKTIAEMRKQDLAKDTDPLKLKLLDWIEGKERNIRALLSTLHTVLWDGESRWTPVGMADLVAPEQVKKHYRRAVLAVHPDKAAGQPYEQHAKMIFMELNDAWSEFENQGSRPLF
Chain of PIP5K1A (Q99755 whole entry): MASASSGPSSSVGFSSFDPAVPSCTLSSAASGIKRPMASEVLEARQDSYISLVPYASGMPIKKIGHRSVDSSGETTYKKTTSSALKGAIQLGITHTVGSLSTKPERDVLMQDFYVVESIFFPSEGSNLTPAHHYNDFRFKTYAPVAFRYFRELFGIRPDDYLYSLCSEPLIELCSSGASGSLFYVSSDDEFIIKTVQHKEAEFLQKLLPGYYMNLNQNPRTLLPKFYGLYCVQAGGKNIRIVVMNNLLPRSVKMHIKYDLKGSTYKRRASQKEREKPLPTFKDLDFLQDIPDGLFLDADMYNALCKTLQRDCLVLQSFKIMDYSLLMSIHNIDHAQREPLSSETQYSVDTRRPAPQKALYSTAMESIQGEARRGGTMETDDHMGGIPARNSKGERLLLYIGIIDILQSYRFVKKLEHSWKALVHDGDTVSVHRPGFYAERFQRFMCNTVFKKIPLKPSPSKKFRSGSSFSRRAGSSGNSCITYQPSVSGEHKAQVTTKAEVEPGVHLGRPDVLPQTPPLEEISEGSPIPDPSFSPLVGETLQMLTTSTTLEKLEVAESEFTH

percentage control at 10 μM (GAK): < 30.0%
percentage control at 10 μM (PIP5K1A): < 30.0%
Compound: C[C@@H]1CC(=O)NN=C1c1ccc(NN=C(C#N)C#N)cc1 [levosimendan]
percentage control at 100 μM (MYLK4): two have intermediate binding affinities (MYLK4 and CAMK2)
percentage control (RIOK3): RIOK3, the closest homolog of RIOK1, showed the similar binding strength as RIOK1
